System: 379773-124-R-J2-PDC spheroid viability
Assay: Anticancer human tumor 379773-124-R-J2-PDC patient-derived endometrial carcinoma cell line growth inhibition [POLQ]
Conditions: spheroids with HUVEC and MSC; for IC50: curve of first compound; for viability, T/C: stronger effect = lower value
Description: Multicellular complex tumor spheroid response to Polymerase (POL) inhibitors (novobiocin, ART-558, RP6685) in combination with a variety of drugs and investigational agents in selected tumor cell lines
The POL inhibitors (novobiocin, ART-558, and RP6685) were evaluated both individually and in combination with standard of care and investigational anticancer small molecules within a complex spheroid model of solid tumors. . Complex spheroids include a stromal component modeled by human endothelial cells (HUVEC) and fibroblasts modeled by human mesenchymal stem cells (MSCs). The concentration ranges selected for each drug and investigational agent were based upon clinically achievable concentrations if the clinical Cmax of the agent was known.
Compounds. The drugs and investigational agents: novobiocin (NSC847541), ART-558 (NSC835418), RP-6685 (NSC848927), peposertib (NSC802822), ceralasertib (NSC780249), elimusertib (NSC800525), camonsertib (NSC841442), AZD-1390 (NSC803789), olaparib (NSC753686), talazoparib (NSC767125), rucaparib (NSC756644), sotorasib (NSC818433), MRTX-1133 (NSC836407), SN-38 (NSC673596), topotecan (NSC609699), epotoside (NSC141540), doxorubicin (NSC123127), gemcitabine (NSC613327), 5-fluorouracil (NSC19893), paclitaxel (NSC125973), vemurafenib (NSC761431), MSA-2 (NSC828583), SN-011 (NSC837082), adavosertib (NSC754352), prexasertib (NSC758257), carboplatin (NSC241240) and oxaliplatin (NSC266046), were obtained from the National Cancer Institute (NCI) Developmental Therapeutics Program Chemical Repository (21). The FDA-approved anticancer drug set is available from the Developmental Therapeutics Program at https://dtp.cancer.gov/organization/dscb/obtaining/. […] The stock solutions were prepared in dimethyl sulfoxide (DMSO, Sigma-Aldrich, St. Louis, MO, cat. D2650), except for the platinum compounds which were prepared in saline (Quality Biological, Gaithersburg, MD, cat. 114-055-101), at 800-fold the tested concentration and stored at -70 degrees C prior to their use. All drugs and investigational agents were tested over a range starting from a high concentration at or near the clinical Cmax and decreasing in half-log increments. If the clinical Cmax for an agent had not been determined, the highest concentration tested was 10 microM, except for SN-38, which was tested at a high concentration of 1 microM.
Cell Culture. All cells were maintained in an incubator at 37 degrees C and 5% CO2 with 95% humidity. The PDC lines were cultured according to standard operating procedures established by the NCI PDMR (https://pdmr.cancer.gov). Table 3 of the manuscript, lists the cell lines along with the number of the three cell types plated to form the mct-spheroids and media for tumor cell growth. After thawing, all PDC lines, except 997537-175-T-J1-PDC and 415267-285-R-J2-PDC, were cultured in Matrigel-coated flasks prepared with a working solution of 1X Ham's F-12 nutrient mix, without supplementation (Thermo Fisher Scientific, cat. 11765054), 100 U/mL penicillin-streptomycin (Thermo Fisher Scientific, cat. 15140122), and 2.5% Matrigel (Corning Inc., Corning, NY, cat. 354248) for the first three passages. The two PDC lines 997537-175-T-J1-PDC and 415267-285-R-J2-PDC were cultured on uncoated flasks. The 857933-349-R-J2-PDC line was cultured in 6C/Colon 1B media containing advanced DMEM/F-12 (Thermo Fisher Scientific, cat. 12634028), 10 mM HEPES (Thermo Fisher Scientific, cat. 15630080), 1X GlutaMAX supplement (Thermo Fisher Scientific, cat. 35050061), 0.1 mg/mL primocin (InvivoGen, San Diego, CA, cat. ant-pm-2), 10% defined fetal bovine serum, heat inactivated (HyClone Laboratories Inc., Logan, UT, cat. SH30070.03HI), 50% L-WRN conditioned media (ATCC, cat. CRL-3276), 1.25 mM N-Acetyl-L-cysteine (Sigma-Aldrich, cat. A9165), 10 mM nicotinamide (Sigma-Aldrich, cat. N0636), 1X B-27 supplement (Thermo Fisher Scientific, cat. 17504044), 1X N-2 supplement (Thermo Fisher Scientific, cat. […]
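Note: spheroids exposed to drugs for seven days before readout.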
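Throughout, for viability, T/C: percent viability relative to DMSO vehicle control taken as 100%.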

O=C(Nc1ccc(O)c(NS(=O)(=O)c2ccc(F)cc2)c1)c1ccc(-c2ccccc2)cc1 + Nc1ccc(C#CCN(C(=O)Cc2ncc(C(F)(F)F)cc2C(F)(F)F)c2ccc(F)cc2)nn1
IC50 (second compound 0.0316 µM): > 10 µM
IC50 (second compound 0.1 µM): > 10 µM
IC50 (second compound 0.316 µM): > 10 µM
IC50 (second compound 1 µM): > 10 µM
IC50 (second compound 3.16 µM): > 10 µM
IC50 (second compound 10 µM): > 10 µM
viability, T/C (second compound 0.0316 µM, first compound 0.0316 µM): 85%
viability, T/C (second compound 0.0316 µM, first compound 0.1 µM): 92.1%
viability, T/C (second compound 0.0316 µM, first compound 0.316 µM): 85.8%
viability, T/C (second compound 0.0316 µM, first compound 1 µM): 91.5%
viability, T/C (second compound 0.0316 µM, first compound 3.16 µM): 89.8%
viability, T/C (second compound 0.0316 µM, first compound 10 µM): 77.5%
viability, T/C (second compound 0.1 µM, first compound 0.0316 µM): 89.8%
viability, T/C (second compound 0.1 µM, first compound 0.1 µM): 81.8%
viability, T/C (second compound 0.1 µM, first compound 0.316 µM): 90.8%
viability, T/C (second compound 0.1 µM, first compound 1 µM): 82.6%
viability, T/C (second compound 0.1 µM, first compound 3.16 µM): 89%
viability, T/C (second compound 0.1 µM, first compound 10 µM): 79.3%
viability, T/C (second compound 0.316 µM, first compound 0.0316 µM): 91.9%
viability, T/C (second compound 0.316 µM, first compound 0.1 µM): 90.4%
viability, T/C (second compound 0.316 µM, first compound 0.316 µM): 84.1%
viability, T/C (second compound 0.316 µM, first compound 1 µM): 88.7%
viability, T/C (second compound 0.316 µM, first compound 3.16 µM): 92.2%
viability, T/C (second compound 0.316 µM, first compound 10 µM): 79.6%
viability, T/C (second compound 1 µM, first compound 0.0316 µM): 96.6%
viability, T/C (second compound 1 µM, first compound 0.1 µM): 96.4%
viability, T/C (second compound 1 µM, first compound 0.316 µM): 89.1%
viability, T/C (second compound 1 µM, first compound 1 µM): 83.2%
viability, T/C (second compound 1 µM, first compound 3.16 µM): 93.8%
viability, T/C (second compound 1 µM, first compound 10 µM): 81%
viability, T/C (second compound 3.16 µM, first compound 0.0316 µM): 94.4%
viability, T/C (second compound 3.16 µM, first compound 0.1 µM): 86.3%
viability, T/C (second compound 3.16 µM, first compound 0.316 µM): 88.8%
viability, T/C (second compound 3.16 µM, first compound 1 µM): 86.2%
viability, T/C (second compound 3.16 µM, first compound 3.16 µM): 86.7%
viability, T/C (second compound 3.16 µM, first compound 10 µM): 79.4%
viability, T/C (second compound 10 µM, first compound 0.0316 µM): 94.2%
viability, T/C (second compound 10 µM, first compound 0.1 µM): 87.6%
viability, T/C (second compound 10 µM, first compound 0.316 µM): 87%
viability, T/C (second compound 10 µM, first compound 1 µM): 85.2%
viability, T/C (second compound 10 µM, first compound 3.16 µM): 86.5%
viability, T/C (second compound 10 µM, first compound 10 µM): 71.9%

Source: PubChem BioAssay AID1963848 (Molecular Pharmacology Branch, DTP, NCI, 2024)
